Data reported in US6372770B1, “Benzoxazoles” (Euro-Celtique, S.A., priority 1994, dated 2002).
Counter-ions that a name gives are not always drawn.

Tests used:
[1] = test system: T1, PDE IV; assay: Type IV PDE inhibition, hydrolysis of [3H]-cyclic AMP; type: biochemical, bovine; conditions: Type IV PDE isolated from bovine tracheal smooth muscle; 0.2 μM cyclic AMP; read-out: PDE IV IC50
T1 construct: PDE IV IC50; other: Type IV PDE isolated from bovine tracheal smooth muscle; rolipram run in the
Description: The PDE IV inhibitory compounds of the present invention may be examined for their PDE IV inhibitory effects via the techniques set forth in the following examples, wherein the ability of the compounds to inhibit PDE IV isolated from bovine tracheal smooth muscle is set forth.
The Type IV PDE is isolated from bovine tracheal smooth muscle using a procedure similar to that previously described by Silver, P. J. et al., Eur. J. Pharmacol. 150:85,1988.(1). Briefly, smooth muscle from bovine trachea is minced and homogenized using a polytron in 10 volumes of an extraction buffer containing 10 mM Tris-acetate (pH 7.5), 2 mM magnesium chloride, 1 mM dithiothreitol and 2,000 units/ml of aprotinin. This and all subsequent procedures are performed at 0-4° C. The homogenate is sonicated and then centrifuged at 48,000×g for 30 minutes. The resulting supernatant is applied to a DEAE Trisacryl M column previously equilibrated with sodium acetate and dithiothreitol. After applications of the sample, the column is washed with sodium acetate/dithiothreitol, after whlich the different forms of PDE are eluted from the column using a linear Tris-HCl/NaCl gradient. Fractions containing Type IV PDE are collected, dialyzed and concentrated to 14% of the original volume. The concentrated fractions are diluted to 50% with ethylene glycol and stored at −20° C.
(§1) Enzyme activity is assessed by measuring the hydrolysis of [^3H]-cyclic AMP, as described by Thompson, W. J. et al., Adv. Cyclic Nucleotide Res. 10:69, 1979. The cyclic AMP concentration used in this assay is 0.2 μM, which approximates the Km value. Protein concentration is adjusted to ensure that no more than 15% of the available substrate is hydrolyzed during the incubation period.
(§2) All test compounds are dissolved in dimethyl sulfoxide (final concentration of 2.5%). This concentration of dimethyl sulfoxide inhibits enzyme activity by approximately 10%.

[2] = molecular target: T2, PDE III (Homo sapiens, UniProt Q14432); assay: Type III PDE inhibition, hydrolysis of [3H]-cyclic AMP; type: biochemical; conditions: for IC50: Type III PDE isolated from human platelets, 0.2 μM cyclic AMP
T2 construct: Fractions containing PDE III activity are pooled and dialyzed overnight; from tissue; host or cells: human platelets
Description: The Type III PDE is isolated from human platelets using a procedure similar to that previously described by Washer, R. E. et al., Biochem. Pharmacol., 35:787, 1986. Briefly, 1-2 units of platelets are suspended in an equal volume of buffer (20 mM Tris-HCl, pH 7.5, containing 2 mM magnesium acetate, 1 mM dithiothreitol, and 5 mM Na2EDTA). The proteinase inhibitor phenylmethyl-sulfonyl fluoride (PMSF) is also included in this buffer at a final concentration of 200 μM. The suspension is homogenized using a polytron and the homogenate centrifuged at 100,000×g for 60 minutes. This and all subsequent procedures are performed at 0-4° C. The supernatant is then filtered through four layers of gauze and applied to a DEAE-Trisacryl M column, previously equilibrated with buffer B (20 mM Tris-HCl, pH 7.5, containing 1 mM magnesium acetate, 1 mM dithiothreitol and 200 μM PMSF). After application of the sample, the column is washed with several bed volumes of buffer B, after which the different forms of PDE are eluted from the column using two successive linear NaCl gradients (0.05-0.15 M, 300 ml total; 0.15-0.40 M, 200 ml total). Five ml fractions are collected and assayed for cyclic AMP and cyclic GMP PDE activity. Fractions containing PDE III activity are pooled and dialyzed overnight against 4 L of buffer B. The dialyzed PDE III is then concentrated to 10% of the original volume, diluted to 50% with ethylene glycol monoethyl ether and stored at −20° C. PDE III can typically be retained for up to four weeks with little or no loss of activity.
as §1, with “approximates to” for “approximates”
as §2

T2 sequence (Q14432 whole entry): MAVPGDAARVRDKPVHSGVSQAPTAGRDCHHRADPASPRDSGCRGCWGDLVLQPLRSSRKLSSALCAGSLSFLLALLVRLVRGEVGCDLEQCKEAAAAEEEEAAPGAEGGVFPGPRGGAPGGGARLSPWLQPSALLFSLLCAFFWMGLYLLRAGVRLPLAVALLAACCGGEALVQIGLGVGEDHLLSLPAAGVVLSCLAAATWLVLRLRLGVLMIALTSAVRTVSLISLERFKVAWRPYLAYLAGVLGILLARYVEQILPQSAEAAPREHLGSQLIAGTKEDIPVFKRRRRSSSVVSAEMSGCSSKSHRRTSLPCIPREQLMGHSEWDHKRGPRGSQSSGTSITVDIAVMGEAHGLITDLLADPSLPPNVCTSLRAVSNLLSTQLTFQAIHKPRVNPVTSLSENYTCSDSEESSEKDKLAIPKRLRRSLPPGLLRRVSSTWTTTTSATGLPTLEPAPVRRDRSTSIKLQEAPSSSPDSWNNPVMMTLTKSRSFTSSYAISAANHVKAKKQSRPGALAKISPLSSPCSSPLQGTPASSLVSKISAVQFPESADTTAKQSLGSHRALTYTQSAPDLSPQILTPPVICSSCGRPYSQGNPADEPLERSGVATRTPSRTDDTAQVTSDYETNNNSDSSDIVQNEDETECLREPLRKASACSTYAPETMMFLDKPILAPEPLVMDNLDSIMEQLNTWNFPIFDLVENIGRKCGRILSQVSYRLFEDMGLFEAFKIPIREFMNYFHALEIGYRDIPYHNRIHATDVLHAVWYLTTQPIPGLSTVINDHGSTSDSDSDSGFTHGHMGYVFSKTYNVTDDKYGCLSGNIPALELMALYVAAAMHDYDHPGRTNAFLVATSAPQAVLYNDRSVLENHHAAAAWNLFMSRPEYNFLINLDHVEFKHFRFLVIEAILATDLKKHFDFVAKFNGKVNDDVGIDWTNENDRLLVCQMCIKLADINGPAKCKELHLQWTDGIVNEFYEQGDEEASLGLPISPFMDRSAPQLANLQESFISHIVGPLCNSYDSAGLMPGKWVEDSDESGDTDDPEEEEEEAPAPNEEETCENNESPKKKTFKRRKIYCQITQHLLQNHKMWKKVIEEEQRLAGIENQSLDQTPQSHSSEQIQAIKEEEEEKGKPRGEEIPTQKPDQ

IC50 [1] | IC50 [2] | inhibition at 10 µM ([2]; at 10 μM) | Compound
19.5 µM | 72.4 µM | – | CC(C)(C)c1cc(Cc2nc3ccccc3o2)cc(C(C)(C)C)c1O [Example 45, 2-[4-Hydroxy-3,5-di-t-butyl-benzyl]Benzoxazole]
0.26 µM | 152 µM | – | CC(C)c1cc(Cc2nc3cccc(C#Cc4ccccn4)c3o2)cc(C(C)C)c1O [Example 23]
24.5 µM | 105 µM | – | Cc1cc(Cc2nc3c(O)cccc3o2)cc(C)c1O [Example 21, 2-((3,5-Dimethyl-4-hydroxy)benzyl)-4-hydroxybenzoxazole]
6.03 µM | 43.9 µM | – | COc1ccc(Cc2nc3cccc(NC(=O)c4ccncc4)c3o2)cc1OC1CCCC1 [Example 16, 2-((3-Cyclopentyloxy-4-methoxy)benzyl)-7-(isonicotinoyl-amino)-benzoxazole Hydrochloride]
0.53 µM | > 300 µM | – | COc1ccc(Cc2nc3c(OCc4ccccn4)cccc3o2)cc1OC1CCCC1 [Example 10, 2-((3-Cyclopentyloxy-4-methoxy)benzyl)-4-(2-pyridylmethoxy)-benzoxazole Hydrochloride]
3.03 µM | 34.3 µM | – | CC(C)c1cc(Cc2nc3c(O)cccc3o2)cc(C(C)C)c1O [Example 20, 2-((3,5-Di-isopropyl-4-hydroxy)benzyl)-4-hydroxy-benzoxazole]
1 µM | 33.2 µM | – | COc1ccc(Cc2nc3cccc(NCc4cccnc4)c3o2)cc1OC1CCCC1 [Example 34, 2-(3-Cyclopentyloxy-4-methoxybenzyl)-7-(3-pyridylmethylamino)Benzoxazole]
9.1 µM | 173 µM | – | Clc1cccc(-c2nc3cccc(NCc4ccccn4)c3o2)c1 [Example 33, 2-(3-chlorophenyl)-7-(2-pyridylmethylamino)benzoxazole]
1.6 µM | 0.6 µM | – | COc1ccc(Cc2nc3cccc([N+](=O)[O-])c3o2)cc1OC1CCCC1 [Example 6, 2-(3-Cyclopentyloxy-4-methoxybenzyl)-7-nitro-benzoxazole]
0.07 µM | – | – | CC(C)(C)c1cc(Cc2nc3cccc(C#Cc4ccccn4)c3o2)cc(C(C)(C)C)c1O [Example 22]
91.5 µM | > 300 µM | – | CC(C)(C)c1cc(CCc2nc3ccccc3o2)cc(C(C)(C)C)c1O [Example 47, 2-[2-(4-Hydroxy-3,5-di-t-butyl-phenyl)]Ethylbenzoxazole]
13.7 µM | 253 µM | – | COc1ccc(Cc2nc3cccc(N)c3o2)cc1OC1CCCC1 [Example 13, 7-Amino-2-((3-Cyclopentyloxy-4-methoxy)benzyl)-benzoxazole Hydrochloride]
4.79 µM | 177 µM | – | COc1ccc(Cc2nc3cccc(NC(=O)c4cccnc4)c3o2)cc1OC1CCCC1 [Example 15, 2-((3-Cyclopentyloxy-4-methoxy)benzyl)-7-(nicotinoyl-amino)-benzoxazole]
0.01 µM | – | – | CC(C)(C)c1cc(Cc2nc3cc(Cl)cc(C#Cc4ccccn4)c3o2)cc(C(C)(C)C)c1O [Example 2, 5-Chloro-2-(3,5-di-t-butyl-4-hydroxy-benzyl)-7(2-(2-pyridyl)-ethynyl)-benzoxazole]
0.01 µM | – | – | CC(C)(C)c1cc(Cc2nc3cc(Cl)cc(C#Cc4nccs4)c3o2)cc(C(C)(C)C)c1O [Example 3, 5-Chloro-2-(3,5-di-t-butyl-4-hydroxy-benzyl)-7-(2-(2-thiazolyl)-ethynyl)-benzoxazole]
5.4 µM | 107 µM | – | C=CCc1cc(Cl)cc2nc(Cc3ccccc3Cl)oc12 [Example 38, 2-(2-Chlorobenzyl)-5-chloro-7-allylbenzoxazole]
15.8 µM | > 300 µM | – | COc1ccc(CNc2cccc3nc(-c4cccc(Cl)c4)oc23)cc1OC1CCCC1 [Example 36, 2-(3-Chlorophenyl)-7-(3-cyclopentyloxy-4-methoxy-benzylamino)Benzoxazole]
0.76 µM | 121 µM | – | COc1ccc(Cc2nc3cccc(NC(=O)c4ccccn4)c3o2)cc1OC1CCCC1 [Example 17, 2-((3-Cyclopentyloxy-4-methoxy)benzyl)-7-(2-pyridine-carbonylamino)-benzoxazole]
32.5 µM | > 300 µM | – | Nc1cccc2nc(-c3cccc(Cl)c3)oc12 [Example 32]
3.43 µM | > 300 µM | – | COc1ccc(Cc2nc3cccc(NC(=O)OCc4ccccc4)c3o2)cc1OC1CCCC1 [Example 18, 7-((Benzyloxycarbonyl)amino)-2-((3-Cyclopentyloxy-4-methoxy)-benzyl)-benzoxazole]
0.47 µM | 2.8 µM | – | COc1ccc(Cc2nc3cccc(Br)c3o2)cc1OC1CCCC1 [Example 19, 2-((3-Cyclopentyloxy-4-methoxy)benzyl)-7-bromo-benzoxazole]
15.2 µM | 53.9 µM | – | COCCCc1cc(Cl)cc2nc(Cc3ccccc3Cl)oc12 [Example 39, 2-(2-Chlorobenzyl)-5-chloro-7-(3-methoxy-1-propyl)Benzoxazole]
21.5 µM | 702 µM | – | COC(=O)c1cccc2oc(Cc3cc(C(C)(C)C)c(O)c(C(C)(C)C)c3)nc12 [Example 46, 2-[4-Hydroxy-3,5-di-t-butyl-benzyl]-4-carbomethoxybenzoxazole]
16.3 µM | > 300 µM | – | COc1ccc(CCc2nc3cc(Cl)ccc3o2)cc1OC [Example 43, 5-Chloro-2-[2-(3,4-dimethoxyphenyl)ethyl]Benzoxazole]
2.92 µM | 128 µM | – | COc1ccc(Cc2nc3cc(Cl)cc(CC(N)=O)c3o2)cc1OC1CCCC1 [Example 30, 2-(3-Cyclopentyloxy-4-methoxybenzyl)-5-chlorobenzoxazole-7-acetamide]
1.99 µM | 49.2 µM | – | COc1ccc(Cc2nc3c(OC)cccc3o2)cc1OC1CCCC1 [Example 14, 2-((3-Cyclopentyloxy-4-methoxy)benzyl)-4-methoxy-benzoxazole]
69.3 µM | 100 µM | – | OCCCc1cccc2nc(Cc3ccccc3Cl)oc12 [Example 41, 2-(2-Chlorobenzyl)-7-(3-hydroxy-1-propyl)Benzoxazole]
0.92 µM | > 300 µM | – | CCCc1cc(Cl)cc2nc(Cc3ccc(OC)c(OC4CCCC4)c3)oc12 [Example 40, 2-(3-Cyclopentyloxy-4-methoxybenzyl)-5-chloro-7-propylbenzoxazole]
0.5 µM | 124 µM | – | COc1ccc(Cc2nc3c(O)cccc3o2)cc1OC1CCCC1 [Example 7, 2-(3-Cyclopentyloxy-4-methoxybenzyl)-4-hydroxy-benzoxazole]
– | > 300 µM | 22% | C=CCc1cc(Cl)cc2nc(Cc3ccc(OC)c(OC4CCCC4)c3)oc12 [Example 1, 7-Allyl-5-chloro-2-(3-cyclopentyloxy-4-methoxybenzyl)-benzoxazole]

Compound | IC50 [1] | IC50 [2] | inhibition at 10 µM ([2]; at 10 μM)
COc1ccc(Cc2nc3c(OC(C)=O)cccc3o2)cc1OC1CCCC1 [Example 8, 4-Acetoxy-2-(3-cyclopentyloxy-4-methoxybenzyl)-benzoxazole] | 0.75 µM | 158 µM | –
2-(3-Cyclopentyloxy-4-methoxybenzyl)-5-chloro-7-(2-hydroxyethyl)benzoxazole Carbamate [Example 28] | 0.7 µM | 36.8 µM | –
2-(3-cyclopentyloxy-4-methoxybenzyl)-5-chlorobenzoxazole-7-ethanal Oxime [Example 31] | 1.66 µM | > 300 µM | –
